Assay results as given in patent US20200179488A1, “Secretin Receptor Agonists to Treat Diseases or Disorders of Energy Homeostasis” (Technische Universität München, priority 2016, published 2020).

Columns and labels:
[1] = biological target: secretin receptor (mouse, on primary brown adipocytes) (mouse) (UniProt Q5FWI2); assay: cell-based or functional assay
Protein Kinase A = assay: SCT-stimulated respiration in primary brown adipocytes after pretreatment with the PKA inhibitor H89; assay type: cell-based, Mus musculus; details: H89 50 μM pretreatment (FIG. 10F)
Method: F: Thermogenic effect of SCT depends on Protein Kinase A activity. Fold increase of basal leak respiration after stimulation with ISO, SCT and vehicle (assay medium) w/o proteinkinase A inhibitor H89 (50 μM). Inhibitor was injected together with olgio prior to addition of stimulators.
(§1) Method: To test whether SCT can activate thermogenesis in brown adipocytes, we measured UCP1-mediated uncoupled respiration in cultured adherent intact primary brown adipocytes, according to a protocol recently established in our lab (Li Y, Fromme T, Schweizer S, Schöttl T, Klingenspor M. EMBO Rep. 2014 October; 15(10):1069-76. doi: 10.15252/embr.201438775; Li Y, Fromme T, Klingenspor M. Meaningful respirometric measurements of UCP1-mediated thermogenesis. Biochimie. 2017 March; 134:56-61. doi: 10.1016/j.biochi.2016.12.005.). The cellular oxygen consumption rate (OCR) of primary adipocytes was determined using an XF96 Extracellular Flux Analyzer (Seahorse Bioscience). […]
All respiration assays were performed in the presence of bovine serum albumin to buffer free fatty acid levels in the respiration medium. Basal respiration was measured in untreated cells. […] UCP1 mediated uncoupled respiration was determined after isoproterenol or secretin stimulation. Maximum respiratory capacity was assessed after FCCP (Sigma-Aldrich) addition (1 μM). […]

adrenergic β-receptors = assay: SCT- and ISO-stimulated respiration in primary brown adipocytes after propranolol pretreatment; assay type: cell-based, Mus musculus
Method: SCT- and ISO-stimulated respiration after 1 h pretreatment with different concentrations propranolol, a non-selective blocker of adrenergic β-receptors.
as §1, with “Bioscience). Briefly, primary adipocytes were cultured and differentiated in XF96 microplates.” for “Bioscience).”
All respiration assays were performed in the presence of bovine serum albumin to buffer free fatty acid levels in the respiration medium. Basal respiration was measured in untreated cells. […] UCP1 mediated uncoupled respiration was determined after isoproterenol or secretin stimulation. Maximum respiratory capacity was assessed after FCCP (Sigma-Aldrich) addition (1 μM). […] Oxygen consumption rates were automatically calculated by the Seahorse XF-96 software. […]

primary brown adipocytes = assay: Microplate respirometry (oxygen consumption rate) in differentiated primary brown adipocytes of wildtype mice; assay type: cell-based, Mus musculus
Method: For culturing primary adipocytes male 129S1/SvImJ mice ([…] or UCP1-KO mice and wildtype littermates) at the age of 5-6 weeks were used for the dissection of inguinal and epidydimal white adipose tissue and interscapular brown adipose tissue depots. The tissue was carefully minced and treated with collagenase for 45 min at 37° C. The homogenate was filtered through a 250 μm nylon mesh and centrifuged at 500 g to collect the stromal vascular fraction (SVF). The SVF cell pellet was rinsed and seeded into XF96 V3-PS cell culture microplate (Seahorse Bioscience). After reaching confluency, induction medium containing 10% fetal bovine serum (FBS), 0.5 mM isobutylmethylxanthine, 125 nM indomethacin, 1 mM dexamethasone, 850 nM insulin and 1 nM T3 was added. After 2 days of induction, cells were maintained in differentiation media (10% FBS, 850 nM insulin and 1 nM T3). Medium was changed every two days. Respiration was measured on day 7 of differentiation. For determination of mRNA levels cells were stimulated at the 7th day of differentiation for 6 hours with secretin (rat, Tocris, Art Nr 1919) or isoproterenol (Sigma-Aldrich, Art Nr. 16504-100MG) and harvested subsequently. Oxygen consumption rate (OCR) was measured at 37° C. using a microplate respirometer (XF96 extracellular flux analyzer, Seahorse Bioscience). At day 7, the differentiation medium was replaced with prewarmed, unbuffered assay medium (DMEM basal medium supplemented with 25 mM glucose, 2 mM sodium pyruvate, 31 mM NaCl, 2 mM GlutaMax and 15 mg/l phenol red, pH 7.4) containing 2% of essentially fatty acid free bovine serum albumin (BSA), and incubated at 37° C. in a room air incubator for 1 h. Basal respiration was measured in untreated cells. Coupled respiration was inhibited by oligomycin treatment (5 μM). […] Maximum respiratory capacity was assessed after FCCP (Sigma-Aldrich) addition (1 μM). Finally, mitochondrial respiration was blocked by antimycin A (Sigma-Aldrich) (5 μM) treatment and the residual OCR was considered to be due to non-mitochondrial reactions. Oxygen consumption rates were calculated using the Seahorse XF-96 software. Data were exported and reconstructed in GraphPad Prism 4.0 software. For each condition the lowest OCR after antimycin A addition was subtracted from all other values. Respiration rates following oligomycin addition were defined as basal OCR. For induction of OCR by isoproterenol, secretin or FCCP the highest values measured after addition of the respective molecule was used. The “OCR in % of basal OCR” and “OCR in % of FCCP OCR” were calculated as follows: Method: To test whether SCT can activate thermogenesis in brown adipocytes, we measured UCP1-mediated uncoupled respiration in cultured adherent intact primary brown adipocytes, according to a protocol recently established in our lab (Li Y, Fromme T, Schweizer S, Schöttl T, Klingenspor M. EMBO Rep. 2014 October; 15(10):1069-76. doi: 10.15252/embr.201438775; […]. Meaningful respirometric measurements of UCP1-mediated thermogenesis. Biochimie. 2017 March; 134:56-61. doi: 10.1016/j.biochi.2016.12.005.). The cellular oxygen consumption rate (OCR) of primary adipocytes was determined using an XF96 Extracellular Flux Analyzer (Seahorse Bioscience). Briefly, primary adipocytes were cultured and differentiated in XF96 microplates. At day 7 of differentiation, cells were washed once with prewarmed, unbuffered assay medium (DMEM basal medium supplemented with 25 mM glucose, 31 mM NaCl, 2 mM GlutaMax and 15 mg/l phenol red, pH 7.4) (basal assay medium) and then the medium was replaced with basal assay medium containing 1-2% essentially fatty acid free bovine serum albumin (BSA), and incubated at 37° C. in a room air incubator for 1 h. The drug injections ports of the sensor cartridges were loaded with the assay reagents at 10× in basal assay medium (no BSA). All respiration assays were performed in the presence of bovine serum albumin to buffer free fatty acid levels in the respiration medium. […]

[2] = test system: primary brown adipocytes from UCP1 knockout mice; assay: Microplate respirometry (oxygen consumption rate) in primary brown adipocytes from UCP1 knockout mice; assay type: cell-based, Mus musculus
Method: For culturing primary adipocytes male 129S1/SvImJ mice ([…] or UCP1-KO mice and wildtype littermates) at the age of 5-6 weeks were used for the dissection of inguinal and epidydimal white adipose tissue and interscapular brown adipose tissue depots. The tissue was carefully minced and treated with collagenase for 45 min at 37° C. The homogenate was filtered through a 250 μm nylon mesh and centrifuged at 500 g to collect the stromal vascular fraction (SVF). The SVF cell pellet was rinsed and seeded into XF96 V3-PS cell culture microplate (Seahorse Bioscience). After reaching confluency, induction medium containing 10% fetal bovine serum (FBS), 0.5 mM isobutylmethylxanthine, 125 nM indomethacin, 1 mM dexamethasone, 850 nM insulin and 1 nM T3 was added. After 2 days of induction, cells were maintained in differentiation media (10% FBS, 850 nM insulin and 1 nM T3). Medium was changed every two days. Respiration was measured on day 7 of differentiation. For determination of mRNA levels cells were stimulated at the 7th day of differentiation for 6 hours with secretin (rat, Tocris, Art Nr 1919) or isoproterenol (Sigma-Aldrich, Art Nr. 16504-100MG) and harvested subsequently. Oxygen consumption rate (OCR) was measured at 37° C. using a microplate respirometer (XF96 extracellular flux analyzer, Seahorse Bioscience). At day 7, the differentiation medium was replaced with prewarmed, unbuffered assay medium (DMEM basal medium supplemented with 25 mM glucose, 2 mM sodium pyruvate, 31 mM NaCl, 2 mM GlutaMax and 15 mg/l phenol red, pH 7.4) containing 2% of essentially fatty acid free bovine serum albumin (BSA), and incubated at 37° C. in a room air incubator for 1 h. Basal respiration was measured in untreated cells. […] Maximum respiratory capacity was assessed after FCCP (Sigma-Aldrich) addition (1 μM). […] Oxygen consumption rates were calculated using the Seahorse XF-96 software. […] For induction of OCR by isoproterenol, secretin or FCCP the highest values measured after addition of the respective molecule was used. The “OCR in % of basal OCR” and “OCR in % of FCCP OCR” were calculated as follows: Method: To test whether SCT can activate thermogenesis in brown adipocytes, we measured UCP1-mediated uncoupled respiration in cultured adherent intact primary brown adipocytes, according to a protocol recently established in our lab (Li Y, Fromme T, Schweizer S, Schöttl T, Klingenspor M. EMBO Rep. 2014 October; 15(10):1069-76. doi: 10.15252/embr.201438775; […]. Meaningful respirometric measurements of UCP1-mediated thermogenesis. Biochimie. 2017 March; 134:56-61. doi: 10.1016/j.biochi.2016.12.005.). The cellular oxygen consumption rate (OCR) of primary adipocytes was determined using an XF96 Extracellular Flux Analyzer (Seahorse Bioscience). […]

UCP1 expression [3] = assay: UCP1 mRNA expression (qRT-PCR) in primary adipocytes from inguinal white adipose tissue; assay type: cell-based, Mus musculus; details: 0.1 μM secretin or 0.5 μM isoproterenol, 6 hours, normalized to TFIIB (FIG. 4A)
Method: (§2) For culturing primary adipocytes male 129S1/SvImJ mice ([…] or UCP1-KO mice and wildtype littermates) at the age of 5-6 weeks were used for the dissection of inguinal and epidydimal white adipose tissue and interscapular brown adipose tissue depots. The tissue was carefully minced and treated with collagenase for 45 min at 37° C. The homogenate was filtered through a 250 μm nylon mesh and centrifuged at 500 g to collect the stromal vascular fraction (SVF). The SVF cell pellet was rinsed and seeded into XF96 V3-PS cell culture microplate (Seahorse Bioscience). After reaching confluency, induction medium containing 10% fetal bovine serum (FBS), 0.5 mM isobutylmethylxanthine, 125 nM indomethacin, 1 mM dexamethasone, 850 nM insulin and 1 nM T3 was added. […] Respiration was measured on day 7 of differentiation. […] RNA was eluted in 50 μl nuclease-free water and RNA concentration was determined spectrophotometrically (Infinite 200 PRO NanoQuant, Tecan, Männedorf/Switzerland). Reverse transcription into cDNA was performed with 500 ng RNA in a final volume of 10 μl (Quantitect Reverse Transcription Kit, Quiagen, Hilden/Germany). qRT-PCR was conducted on 384 well plates in a total volume of 12.5 μl comprising 6.25 μl SensiMix SYBR No-ROX (Bioline, London/UK), 250 nM forward and reverse primers, and 1 μl template cDNA (LightCycler 480 System, Roche Diagnostics, Rotkreuz/Switzerland). […]

UCP1 expression [4] = assay: UCP1 mRNA expression (qRT-PCR) in primary adipocytes from interscapular brown adipose tissue; assay type: cell-based, Mus musculus; details: 0.1 μM secretin or 0.5 μM isoproterenol, 6 hours, normalized to TFIIB (FIG. 4B)
Method: as §2

Sequence of UniProt Q5FWI2 (Q5FWI2 29-447): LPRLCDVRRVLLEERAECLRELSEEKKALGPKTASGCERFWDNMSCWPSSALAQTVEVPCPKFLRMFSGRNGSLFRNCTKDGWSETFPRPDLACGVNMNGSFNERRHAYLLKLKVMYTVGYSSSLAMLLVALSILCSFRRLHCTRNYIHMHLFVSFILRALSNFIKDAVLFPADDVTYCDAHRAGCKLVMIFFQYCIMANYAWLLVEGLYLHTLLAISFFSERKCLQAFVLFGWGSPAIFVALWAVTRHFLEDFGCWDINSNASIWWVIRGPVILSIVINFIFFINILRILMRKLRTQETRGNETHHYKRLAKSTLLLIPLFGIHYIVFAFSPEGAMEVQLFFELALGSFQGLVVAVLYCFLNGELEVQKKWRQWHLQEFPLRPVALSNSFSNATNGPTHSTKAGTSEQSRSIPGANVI

secretin (rat, Tocris, Art Nr 1919) (from UniProt P11384 33-59) (peptide)
oxygen consumption rate (OCR) in primary brown adipocytes, increase above basal OCR, 0.5 µM secretin (% above basal OCR) [1]: 200 | uncoupled OCR in primary brown adipocytes as a share of maximal uncoupled OCR induced by FCCP, 0.5 µM secretin (% of maximal uncoupled OCR) [1]: 75

O=S(=O)(NCCNCC=Cc1ccc(Br)cc1)c1cccc2cnccc12 [H89, N-[2-[[3-(4-Bromophenyl)-2-propenyl]amino]ethyl]-5-isoquinolinesulfonamide]
effect on the thermogenic effect of SCT (Protein Kinase A): completely blocked the thermogenic effect of SCT

CC(C)NCC(O)COc1cccc2ccccc12 (stereo not shown) [propranolol]
effect on SCT stimulated respiration (adrenergic β-receptors; 1 h pretreatment with propranolol (1 μM; different concentrations in FIG. 10D)): did not attenuate SCT stimulated respiration | effect on ISO stimulated respiration (adrenergic β-receptors; 1 h pretreatment with propranolol, dose dependent (FIG. 10D)): blocking the effect of ISO

CC(C)NCC(O)c1ccc(O)c(O)c1 (stereo not shown) [isoproterenol, reference compound]
increase of OCR above basal OCR (primary brown adipocytes; 0.5 μM, after oligomycin, day 7 of differentiation (FIG. 2B)): about 200% | uncoupled OCR as share of maximal uncoupled OCR induced by FCCP (primary brown adipocytes; 0.5 μM, day 7 of differentiation (FIG. 2C)): about 75% | induction of oxygen consumption in cells from wildtype control mice (primary brown adipocytes; 129/S1 background, FIG. 3): increase in oxygen consumption | stimulation of UCP1-mediated thermogenesis (uncoupled respiration) (primary brown adipocytes; SCT 10 nM, ISO 500 nM, N=5 (FIG. 10A)): activate UCP1-dependent thermogenesis | induction of respiration in cells from UCP1 knockout mice ([2]; 129/S1 background, FIG. 3): lacking | response of respiration in UCP1 knockout brown adipocytes ([2]; SCT 10 nM, ISO 500 nM (FIG. 10B)): did not respond | UCP1 mRNA expression in white adipocytes versus PBS (UCP1 expression [3]): induction of UCP1 expression | UCP1 mRNA expression in brown adipocytes versus PBS (UCP1 expression [4]): induced UCP1 expression to a similar level as secretin
